Experimental data published in patent US20230248744A1, “25-HYDROXYVITAMIN D2 AND/OR D3 FOR USE IN OBESITY” (CARBOGEN AMCIS B.V., priority 2020, published 2023).
Read-outs that look alike come from different tables or passages of the source.

Assay: Double-blind randomized crossover pharmacokinetic study, single oral 900 μg vitamin D3 or 25(OH)D3
Assay type: in vivo, human
Settings: for Cmax / Tmax / concentration at 14 days / half-life / AUC: both sexes, human, in vivo, po, single oral 900 μg, mean ± SEM; for Cmax / Tmax / half-life / AUC: 900 ug; for concentration at 14 days: 900 μg, read-out: Ctrough (trough level at day 14); for half-life: read-out: T1/2 (elimination half-life) (converted); for blood level of vitamin D3 relative to Cmax: FIG. 4a, turning point after about 2% days, single oral 900 μg vitamin D3
Procedure: The conclusions as presented herein are based on the following experiments: In a double-blinded cross-over study single high dosages (900 μg total in two soft gel capsules containing 450 μg) of either vitamin D3 or 25(OH)D3 were administered to vitamin D-deficient volunteers including healthy controls as well as subjects with a history of malabsorption. At the outset, the BMI was determined. Blood samples were then taken at baseline and at 2, 4, 6, 8, and 12 hours as well as 1, 2, 3, 7, and 14 days after administration (FIG. 2). All the samples were analyzed for their contents in vitamin D3 per se as well as 25(OH)D3. […] In addition, peak levels were more rapidly reached with 25(OH)D3 than with vitamin D3 (see FIG. 5). The immediate increase in serum 25(OH)D3 compared to the delayed increase observed with vitamin D3 supports the concept that 25(OH)D3 is being rapidly absorbed from the small intestine into the portal circulation, whereas vitamin D3 first needs to be incorporated into the chylomicrons which are absorbed into the lymphatic system.
The pharmacokinetic parameters of orally administered 25(OH)D3 and vitamin D3 (both provided for formulation in form of visually identical soft-gel pills) were studied based on the corresponding serum concentration-time curves in healthy adults and adults with a history of intestinal malabsorption (see FIG. 2). Cinical safety has been evaluated by monitoring serum calcium, phosphorus, parathyroid hormone (PTH) and 25(OH)D levels at the beginning and end of the study. Furthermore, the distribution of supplemented 25(OH)D3 (or 25(OH)D2) into adipose tissue and the role it is playing there was also studied.
Serum levels of calcium, phosphorus, albumin, creatinine and intact parathyroid hormone (iPTH) were determined at baseline and at the end of each 14-day pharmacokinetic study (see Table 4). The pharmacokinetic parameters have been determined by evaluating the serum concentration-time curves in patients with malabsorption syndrome and healthy controls (Tables 5 and 6).
The primary outcomes of the study are the serum pharmacokinetic parameters of 25(OH)D3 and vitamin D3 after a single oral administration of 900 μg of each in a double-blind randomized crossover study.
Adult patients (18 years and older) with a history of intestinal malabsorption (n=10) and healthy adult volunteers (n=10); (of both sexes and all ethnicities) has been recruited in this randomized double-blinded crossover study. The BMI has been determined and recorded at baseline. All subjects have been prescreened for 25(OH)D levels to include subjects with 25(OH)D<30 ng/mL. The subjects have been randomized to receive two oral doses of 450 μg taken simultaneously (total 900 μg) of either vitamin D3 or 25(OH)D3. Blood samples were taken at baseline and at 2, 4, 6, 8, 12 hours and days 1, 2, 3, 7 and 14. There was a two weeks washout period before the subject received in a double blinded manner, two oral doses of 450 μg taken simultaneously (total 900 μg) of either 25(OH)D3 or vitamin D3 (depending on which one they took in the randomization) any time after the 2 week washout. Blood samples were taken at baseline and at 2, 4, 6, 8, 12 hours and days 1, 2, 3, 7 and 14 days. Serum levels of calcium, phosphorus, albumin, creatinine, and intact parathyroid hormone (iPTH) were obtained at baseline and at day 14 for each arm (or within a reasonable time if the study participant was unable to come on the exact day).
The individuals participating in the study had, after signing a consent form, been randomized by a computer randomization chart in a blinded manner to receive two oral doses of 450 μg taken simultaneously (total 900 μg) of either vitamin D3 or 25(OH)D3. Blood samples have been taken at baseline and at 2, 4, 6, 8, 12 hours and days 1, 2, 3, 7 and 14. […]

[1] = healthy participants with higher BMI (N = 5)
[2] = healthy participants with lower BMI (N = 5)
[3] = patients with fat malabsorption (N = 6)

SMILES: C=C1CC[C@H](O)C/C1=C/C=C1\CCC[C@]2(C)[C@@H]([C@H](C)CCCC(C)C)CC[C@@H]12 [vitamin D3, cholecalciferol]
- time at which the peak of the serum concentration is reached (FIG. 5, oral 900 μg): about 12 hours
- bioavailability in subjects with a history of vitamin D/fat malabsorption (after administration of the respective product, FIGS. 3a and b): reduced
- Cmax (healthy participants (N = 10)): 53.5 ± 6 ng/mL
- Tmax (healthy participants (N = 10)): 10.4 ± 0.7 h
- concentration at 14 days (healthy participants (N = 10)): 0.3 ± 0.3 ng/mL
- half-life (healthy participants (N = 10)): 31.4 ± 3.3 h
- AUC (healthy participants (N = 10), serum level of the administered substance): 3260 ± 496 ng·h/mL
- AUC [1]: 2090 ± 547 ng·h/mL
- Cmax [1]: 44.4 ± 9.3 ng/mL
- Tmax [1]: 9.6 ± 1 h
- concentration at 14 days [1]: 0 ng/mL
- half-life [1]: 23.8 ± 3.1 h
- AUC [2]: 4430 ± 350 ng·h/mL
- Cmax [2]: 62.6 ± 5.7 ng/mL
- Tmax [2]: 11.2 ± 0.8 h
- concentration at 14 days [2]: 0.6 ± 0.6 ng/mL
- half-life [2]: 39 ± 3.4 h
- Cmax [3]: 24.3 ± 8.4 ng/mL
- Tmax [3]: 11.3 ± 0.7 h
- concentration at 14 days [3]: 0.1 ± 0.1 ng/mL
- half-life [3]: 28.7 ± 1.5 h
- AUC (patients with fat malabsorption (N = 6), serum level of the administered substance): 1180 ± 425 ng·h/mL
- blood level of vitamin D3 relative to Cmax (high BMI subjects): ≈ 23 % of Cmax
- blood level of vitamin D3 relative to Cmax (low BMI (normal) subjects): 41 % of Cmax and ≈ 41 % of Cmax
